Results from patent US6335356B1, “Method of treating a patient by parenteral administration of a lipophilic compound” (Sugen, Inc., priority 1994, dated 2002).
In brackets after ≈: the same amount, converted by molar mass.

How the values were obtained:
[1] = Ability of leflunomide solutions to be diluted with aqueous solutions; assay type: physicochemical; conditions: for Solubility: organic solvent or mixture, read-out: concentration soluble and allowing dilution with aqueous solutions
Experimental: (§1) Leflunomide has a low solubility in standard formulations used to dissolve compounds for parenteral administration. For example, the solubility of leflunomide in VPD (126 mg alcohol, 40 mg POLYSORBATE 80®, 3 mg citric acid, 15 mg benzyl alcohol, and 325 mg PEG MW300; also referred to as PBTE) is about 60 mg/ml. Parenterally administered VPD formulations should be diluted at least 1:2 with a pharmaceutically acceptable aqueous solution to avoid toxic effects. Such dilution can result in precipitation of lipophilic compounds. For leflunomide, a concentration in VPD greater than about 5 mg/ml precipitates when diluted 1:2 with a pharmaceutically aqueous solution such as WFI. Leflunomide was solubilized in varying ratios of POLYSORBATE 80® and alcohol. The leflunomide solutions were then tested for the ability to dilute with aqueous solutions.

[2] = Physical stability (precipitation) of leflunomide solutions over time; assay type: physicochemical
[3] = assay type: physicochemical
Excerpt: The pH of the formulations can be adjusted with a pharmaceutically acceptable excipient. For example, the apparent pH of the POLYSORBATE 80®:alcohol formulations can be adjusted with citric acid.

[4] = Solubility of leflunomide in vehicles (POLYSORBATE 80:alcohol ratios, alcohol, VPD/PBTE); assay type: physicochemical
Experimental: as §1, with “WFI.” for “WFI. Leflunomide was solubilized in varying ratios of POLYSORBATE 80® and alcohol. The leflunomide solutions were then tested for the ability to dilute with aqueous solutions.”
Increasing the solubility of leflunomide allows more leflunomide to be administered to a patient via parenteral administration. The formulations described by the present invention can use alcohol and a surfactant to solubilize leflunomide. Leflunomide is soluble in alcohol at 100 mg/ml. The surfactant is added to allow for the dilution into a pharmaceutically acceptable aqueous solution prior to injection.
Leflunomide was solubilized in varying ratios of POLYSORBATE 80® and alcohol. The leflunomide solutions were then tested for the ability to dilute with aqueous solutions.
As noted above, the stability of leflunomide in solution is pH dependent. To stabilize leflunomide varying amounts of citric acid (1 to 20 mg/ml) were added to both 33%T:66%E and 66%T:33%E. The citric acid decreased the apparent pH of the solutions.

Solubility ([1]; POLYSORBATE 80:alcohol vehicle 33%T:66%E, in 33%T:66%E): 25 mg/mL (≈ 92.5 mM)
Solubility ([1]; POLYSORBATE 80:alcohol vehicle 66%T:33%E, in 66%T:33%E): 50 mg/mL (≈ 185 mM)
concentration in VPD that precipitates when diluted 1:2 ([1]; VPD diluted 1:2 with pharmaceutically aqueous solution such as WFI): greater than 5 mg/ml
remaining in solution ([2]; 20 mg/ml in 33%T:66%E with citric acid, 2-8° C. for 7 days): precipitate started to occur
remaining in solution ([2]; 20 mg/ml in 33%T:66%E with either 4 or 6 mg/ml citric acid, 4° C.): remains in solution
remaining in solution ([2]; 20 mg/ml in 33%T:66%E with either 4 or 6 mg/ml citric acid, room temperature): remains in solution
remaining in solution with time ([2]; 25 mg/ml in 33%T:66%E, diluted with aqueous solutions, room temperature (22° C. to 26° C.), over 3 days): falls out of solution
solubility after addition of citric acid ([4]; 33%:66%E with citric acid 1 to 20 mg/ml): no longer soluble to the same extent
Solubility ([4]; VPD (PBTE) parenteral vehicle, organic solvent or mixture, VPD (126 mg alcohol, 40 mg POLYSORBATE 80, 3 mg citric acid, 15 mg benzyl alcohol, 325 mg PEG MW300; also PBTE), read-out: solubility in VPD): ~60 mg/mL
Solubility ([4]; alcohol, organic solvent or mixture, read-out: soluble in alcohol at): 100 mg/mL
Solubility ([4]; vehicle 33%T:66%E (POLYSORBATE 80:alcohol v/v), 100 mg/ml): Insoluble
Solubility ([4]; vehicle 33%T:66%E, 25 mg/ml): Soluble
Solubility ([4]; vehicle 33%T:66%E, 50 mg/ml): Soluble
Solubility ([4]; vehicle 50%T:50%E, 50 mg/ml): Soluble
Solubility ([4]; vehicle 50%T:50%E, 55 mg/ml): Soluble
Solubility ([4]; vehicle 50%T:50%E, 60 mg/ml): Soluble
Solubility ([4]; vehicle 50%T:50%E, 75 mg/ml): Soluble
Solubility ([4]; vehicle 50%T:50%E, 100 mg/ml): Soluble
Solubility ([4]; vehicle 66%T:33%E, 50 mg/ml): Soluble
Solubility ([4]; vehicle 66%T:33%E, 100 mg/ml): Insoluble
Solubility ([4]; vehicle PBTE6C:WFI, 2.5 mg/ml): Soluble
Solubility ([4]; vehicle alcohol, 100 mg/ml): Soluble
SMILES: Cc1oncc1C(=O)Nc1ccc(C(F)(F)F)cc1 [Leflunomide, 5-methylisoxazole-4 carboxylic acid-(4-trifluromethyl)-anilide]
stability in solution [3]: breakdown to N-(4-trifluoromethylphenyl)-2-cyano-3-hydroxycrotonamide
